From patent US12545640B2, “Substituted 6,7-dihydro-5H-benzo[7]annulene compounds, processes for their preparation and therapeutic uses thereof” (SANOFI, priority 2019, dated 2026)
Counter-ions that a name gives are not always drawn.

Molecular target: T1, ERα (Homo sapiens, UniProt P03372)
T1 construct: host or cells: MCF7 cells
T1 sequence (P03372 1-595): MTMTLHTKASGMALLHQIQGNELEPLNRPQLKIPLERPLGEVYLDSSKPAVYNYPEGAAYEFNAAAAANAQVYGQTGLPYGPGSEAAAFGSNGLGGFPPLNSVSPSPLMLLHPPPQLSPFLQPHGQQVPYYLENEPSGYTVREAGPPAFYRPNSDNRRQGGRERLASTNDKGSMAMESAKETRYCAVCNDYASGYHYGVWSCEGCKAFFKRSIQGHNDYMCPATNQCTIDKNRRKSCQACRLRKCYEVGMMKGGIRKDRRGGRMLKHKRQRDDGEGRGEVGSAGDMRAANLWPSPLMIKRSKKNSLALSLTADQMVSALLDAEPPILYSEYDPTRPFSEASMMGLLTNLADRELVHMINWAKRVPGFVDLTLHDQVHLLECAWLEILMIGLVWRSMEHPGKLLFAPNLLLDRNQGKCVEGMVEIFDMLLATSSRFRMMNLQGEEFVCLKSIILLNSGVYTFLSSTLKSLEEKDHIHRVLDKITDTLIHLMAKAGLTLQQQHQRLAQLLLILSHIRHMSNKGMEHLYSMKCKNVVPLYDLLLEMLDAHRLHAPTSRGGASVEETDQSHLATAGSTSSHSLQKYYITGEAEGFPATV
Assay: Estrogen receptor degradation activity: breast cancer cell ERα in cell western assay (MCF7 cells)
Type: cell-based
Settings: 4 hours, relative to fulvestrant 0.1 μM positive control; for % Degradation At 3 μM: final concentrations ranging from 3-0.000018 μM; for % Degradation At 0.3 μM: final concentrations ranging from 0.3-0.0000018 μM
Description: Test: Estrogen Receptor Degradation Activity
Said test involves measuring the in vitro degradation activity of the compounds of the invention.
The measurements of the degradation activities were made using a breast cancer cell ERα in cell western assay as described hereunder.
MCF7 cells (ATCC) were seeded in 384 wells microplate (collagen coated) at a concentration of 10000 cells/30 μL, per well in red phenol free MEM alpha medium (invitrogen) containing 5% charcoal dextran striped FBS. The following day, 9 points serial 1:5 dilution of each compound was added to the cells in 2.5 μL at final concentrations ranging either from 3-0.000018 μM (column «% Degradation at 3 μM in table 2) or from 0.3-0.0000018 μM (column «% Degradation at 0.3 μM in table 2), or 0.1 μM for fulvestrant (using as positive control). At 4 hours post compound addition the cells were fixed by adding 25 μL of formalin (final concentration 5% formalin containing 0.1% triton) for 10 minutes at room temperature and then washed twice with PBS. Then, 50 μL of LI-COR blocking buffer containing 0.1% Triton was added to plate for 30 minutes at room temperature. LI-COR blocking buffer was removed and cells were incubated overnight at cold room with 50 μL anti-ER rabbit monoclonal antibody (Thermo scientific MA1-39540) diluted at 1:1000 in LI-COR blocking buffer containing 0.1% tween-20. Wells which were treated with blocking buffer but no antibody were used as background control. Wells were washed twice with PBS (0.1% tween-20) and incubated at 37° C. for 60 minutes in LI-COR (0.1% tween-20) containing goat anti-rabbit antibody Alexa 488 (1:1000) and Syto-64 a DNA dye ([…]). Cells were then washed 3 times in PBS and scanned in ACUMEN explorer (TTP-Labtech). Integrated intensities in the green fluorescence and red fluorescence were measured to determine the levels of ERα and DNA respectively.

Row | Structure (SMILES) | % Degradation At 3 μM [%] | % Degradation At 0.3 μM [%]
1 | O=C(O)c1cccc(-c2ccc3c(c2)CCCC(c2ccc(Cl)cc2Cl)=C3c2ccc(O[C@H]3CCN(CCCF)C3)cc2)c1 [Example 55, (S)-3-(8-(2,4-dichlorophenyl)-9-(4-((1-(3-fluoropropyl)pyrrolidin-3-yl)oxy)phenyl)-6,7-dihydro-5H-benzo[7]annulen-3-yl)benzoic acid] | 84 | –
2 | COC(=O)c1ccc(-c2ccc3c(c2)CCCC(c2ccc(Cl)cc2Cl)=C3c2ccc(O[C@H]3CCN(CCCF)C3)cc2)cc1 [Example 56, Methyl (S)-4-(8-(2,4-dichlorophenyl)-9-(4-((1-(3-fluoropropyl)pyrrolidin-3-yl)oxy)phenyl)-6,7-dihydro-5H-benzo[7]annulen-3-yl)benzoate] | 89 | –
3 | COC(=O)c1cccc(-c2ccc3c(c2)CCCC(c2ccc(Cl)cc2Cl)=C3c2ccc(O[C@H]3CCN(CCCF)C3)cc2)c1 [Example 57, Methyl (S)-3-(8-(2,4-dichlorophenyl)-9-(4-((1-(3-fluoropropyl)pyrrolidin-3-yl)oxy)phenyl)-6,7-dihydro-5H-benzo[7]annulen-3-yl)benzoate] | 87 | –
4 | O=C(NNC(=S)n1ccnc1)c1ccc2c(c1)CCCC(c1ccc(Cl)cc1Cl)=C2c1ccc(O[C@H]2CCN(CCCF)C2)cc1 [Example 59, (S)-8-(2,4-dichlorophenyl)-9-(4-((1-(3-fluoropropyl)pyrrolidin-3-yl)oxy)phenyl)-N′-(1H-imidazole-1-carbonothioyl)-6,7-dihydro-5H-benzo[7]annulene-3-carbohydrazide] | 91 | –
5 | Nc1nc(-c2ccc3c(c2)CCCC(c2ccc(Cl)cc2Cl)=C3c2ccc(O[C@H]3CCN(CCCF)C3)cc2)cs1 [Example 61, (S)-4-(8-(2,4-dichlorophenyl)-9-(4-((1-(3-fluoropropyl)pyrrolidin-3-yl)oxy)phenyl)-6,7-dihydro-5H-benzo[7]annulen-3-yl)thiazol-2-amine] | 76 | –
6 | CC(C)(C)C(=O)Nc1ccc2c(c1)CCCC(c1ccc(Cl)cc1Cl)=C2c1ccc(O[C@H]2CCN(CCCF)C2)cc1 [Example 62, (S)—N-(8-(2,4-dichlorophenyl)-9-(4-((1-(3-fluoropropyl)pyrrolidin-3-yl)oxy)phenyl)-6,7-dihydro-5H-benzo[7]annulen-3-yl)pivalamide] | – | 68
7 | OC(c1ccc2c(c1)CCCC(c1cccc(F)c1Cl)=C2c1ccc(O[C@H]2CCN(CCCF)C2)cc1)C(F)(F)F (stereo partly drawn) [Example 65, 1-(8-(2-chloro-3-fluorophenyl)-9-(4-(((S)-1-(3-fluoropropyl)pyrrolidin-3-yl)oxy)phenyl)-6,7-dihydro-5H-benzo[7]annulen-3-yl)-2,2,2-trifluoroethan-1-ol] | – | 90
8 | C/N=c1\scc(-c2ccc3c(c2)CCCC(c2ccc(Cl)cc2Cl)=C3c2ccc(O[C@H]3CCN(CCCF)C3)cc2)n1C [Example 69, (S,Z)-4-(8-(2,4-dichlorophenyl)-9-(4-((1-(3-fluoropropyl)pyrrolidin-3-yl)oxy)phenyl)-6,7-dihydro-5H-benzo[7]annulen-3-yl)-N,3-dimethylthiazol-2(3H)-imine hydrochloride] | – | 69
9 | CC(C)(C)OC(=O)Nc1ccc2c(c1)CCCC(c1ccccc1)=C2c1ccc(O[C@H]2CCN(CCCF)C2)cc1 [Example 71, tert-butyl (S)-(9-(4-((1-(3-fluoropropyl)pyrrolidin-3-yl)oxy)phenyl)-8-phenyl-6,7-dihydro-5H-benzo[7]annulen-3-yl)carbamate] | – | 91
10 | O=C(O)c1ccc(-c2ccc3c(c2)CCCC(c2ccc(Cl)cc2Cl)=C3c2ccc(O[C@H]3CCN(CCCF)C3)cc2)cc1 [Example 72, (S)-4-(8-(2,4-dichlorophenyl)-9-(4-((1-(3-fluoropropyl)pyrrolidin-3-yl)oxy)phenyl)-6,7-dihydro-5H-benzo[7]annulen-3-yl)benzoic acid] | – | 74
11 | CCOC(=O)C(=O)Nc1ccc2c(c1)CCCC(c1ccc(Cl)cc1Cl)=C2c1ccc(O[C@H]2CCN(CCCF)C2)cc1 [Example 76, ethyl (S)-2-((8-(2,4-dichlorophenyl)-9-(4-((1-(3-fluoropropyl)pyrrolidin-3-yl)oxy)phenyl)-6,7-dihydro-5H-benzo[7]annulen-3-yl)amino)-2-oxoacetate] | – | 75
12 | NC(=O)C(=O)Nc1ccc2c(c1)CCCC(c1ccc(Cl)cc1Cl)=C2c1ccc(O[C@H]2CCN(CCCF)C2)cc1 [Example 77, (S)—N1-(8-(2,4-dichlorophenyl)-9-(4-((1-(3-fluoropropyl)pyrrolidin-3-yl)oxy)phenyl)-6,7-dihydro-5H-benzo[7]annulen-3-yl)oxalamide] | – | 55
13 | CCOc1ccc(C2=C(c3ccc(O[C@H]4CCN(CCCF)C4)cc3)c3ccc(C(N)=O)cc3CCC2)c(F)n1 [Example 79, (S)-8-(6-ethoxy-2-fluoropyridin-3-yl)-9-(4-((1-(3-fluoropropyl)pyrrolidin-3-yl)oxy)phenyl)-6,7-dihydro-5H-benzo[7]annulene-3-carboxamide] | – | 91

Continued, values first:

Row | % Degradation At 3 μM [%] | % Degradation At 0.3 μM [%] | Structure (SMILES)
14 | 77 | – | O=C1CCCN1c1ccc2c(c1)CCCC(c1ccc(Cl)cc1Cl)=C2c1ccc(O[C@H]2CCN(CCCF)C2)cc1 [Example 58, (S)-1-(8-(2,4-dichlorophenyl)-9-(4-((1-(3-fluoropropyl)pyrrolidin-3-yl)oxy)phenyl)-6,7-dihydro-5H-benzo[7]annulen-3-yl)pyrrolidin-2-one]
15 | 74 | – | O=C(Nc1ccc2c(c1)CCCC(c1ccc(Cl)cc1Cl)=C2c1ccc(O[C@H]2CCN(CCCF)C2)cc1)C1CC1 [Example 60, (S)—N-(8-(2,4-dichlorophenyl)-9-(4-((1-(3-fluoropropyl)pyrrolidin-3-yl)oxy)phenyl)-6,7-dihydro-5H-benzo[7]annulen-3-yl)cyclopropanecarboxamide]
16 | – | 74 | O=C(Nc1ccc2c(c1)CCCC(c1ccc(Cl)cc1Cl)=C2c1ccc(O[C@H]2CCN(CCCF)C2)cc1)C1(F)CC1 [Example 66, (S)—N-(8-(2,4-dichlorophenyl)-9-(4-((1-(3-fluoropropyl)pyrrolidin-3-yl)oxy)phenyl)-6,7-dihydro-5H-benzo[7]annulen-3-yl)-1-fluorocyclopropane-1-carboxamide]
17 | – | 79 | CC1(C(=O)Nc2ccc3c(c2)CCCC(c2ccc(Cl)cc2Cl)=C3c2ccc(O[C@H]3CCN(CCCF)C3)cc2)CC1 [Example 67, (S)—N-(8-(2,4-dichlorophenyl)-9-(4-((1-(3-fluoropropyl)pyrrolidin-3-yl)oxy)phenyl)-6,7-dihydro-5H-benzo[7]annulen-3-yl)-1-methylcyclopropane-1-carboxamide]
18 | – | 89 | Nc1cc(-c2ccc3c(c2)CCCC(c2ccc(Cl)cc2Cl)=C3c2ccc(O[C@H]3CCN(CCCF)C3)cc2)n[nH]1 [Example 73, (S)-3-(8-(2,4-dichlorophenyl)-9-(4-((1-(3-fluoropropyl)pyrrolidin-3-yl)oxy)phenyl)-6,7-dihydro-5H-benzo[7]annulen-3-yl)-1H-pyrazol-5-amine]
19 | – | 59 | O=C(c1ccc2c(c1)CCCC(c1ccc(Cl)cc1Cl)=C2c1ccc(O[C@H]2CCN(CCCF)C2)cc1)N1CC(O)C1 [Example 74, (S)-(8-(2,4-dichlorophenyl)-9-(4-((1-(3-fluoropropyl)pyrrolidin-3-yl)oxy)phenyl)-6,7-dihydro-5H-benzo[7]annulen-3-yl)(3-hydroxyazetidin-1-yl)methanone]
20 | – | 71 | O=C(NC1COC1)c1ccc2c(c1)CCCC(c1ccc(Cl)cc1Cl)=C2c1ccc(O[C@H]2CCN(CCCF)C2)cc1 [Example 75, (S)-8-(2,4-dichlorophenyl)-9-(4-((1-(3-fluoropropyl)pyrrolidin-3-yl)oxy)phenyl)-N-(oxetan-3-yl)-6,7-dihydro-5H-benzo[7]annulene-3-carboxamide]
